Data reported in US8207172B2 (Bayer Intellectual Property GmbH, priority 2004, dated 2012).
pIC50: −log10 of the molar value. Structures can show the parent of a compound that is named as a salt.

Experiments:
[1] = system: A431 cells (human epidermoid carcinoma); assay: In vitro tumor cell proliferation assay (Cell Titer-Glo luminescent cell viability), A431; assay type: cell-based; settings: A-431, 72 h, 72 hours of drug exposure, ATP luminescence readout, read-out: IC50, anti-proliferative activity (inhibition of cell proliferation)
Summary of the method: (§1)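 Proliferation inhibition was measured as ATP-dependent luciferase signal after cells in RPMI with 10% FBS received test compound for 72 h at 37° C. Final concentrations spanned […] to 64 pM in 0.1% DMSO; IC50 values were derived.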

[2] = system: BT474 (human breast carcinoma); assay: In vitro tumor cell proliferation assay (Cell Titer-Glo luminescent cell viability), BT474; assay type: cell-based; settings: BT-474, 72 h, BT474 cells, 72 hours of drug exposure, ATP luminescence readout, read-out: IC50, anti-proliferative activity (inhibition of cell proliferation)
Summary of the method: as §1

COCCN1CCN(CCn2cc3c(n2)CCc2c-3sc3ncnc(Nc4ccc5c(cnn5Cc5ccccc5)c4)c23)CC1 [Example 308, N-(1-benzyl-1H-indazol-5-yl)-2-{2-[4-(2-methoxyethyl)piperazin-1-yl]ethyl}-4,5-dihydro-2H-pyrimido[5′,4′:4,5]thieno[2,3-e]indazol-6-amine]
pIC50 [1]: ≥ 4.30 | pIC50 [2]: ≥ 6.00

CN(C)[C@H]1CCN(CCn2ncc3c2CCc2c-3sc3ncnc(Nc4ccc(F)c(Cl)c4)c23)C1 [Example 95, N-(3-chloro-4-fluorophenyl)-3-{2-[3-(dimethylamino)pyrrolidin-1-yl]ethyl}-4,5-dihydro-3H-pyrimido[5′,4′:4,5]thieno[2,3-e]indazol-6-amine]
pIC50 [1]: ≥ 5.30 | pIC50 [2]: ≥ 6.00

Fc1ccc(Nc2ncnc3sc4c(c23)CCc2c-4cnn2CCN2CCNCC2)cc1Cl [Example 94, N-(3-chloro-4-fluorophenyl)-3-(2-piperazin-1-ylethyl)-4,5-dihydro-3H-pyrimido[5′,4′:4,5]thieno[2,3-e]indazol-6-amine]
pIC50 [1]: ≥ 5.30 | pIC50 [2]: ≥ 5.30

CC(C)CNC[C@@H](O)Cn1cc2c(n1)CCc1c-2sc2ncnc(Nc3ccc(OCc4cccc(F)c4)c(Cl)c3)c12 [Example 161, (2R)-1-[6-({3-chloro-4-[(3-fluorobenzyl)oxy]phenyl}amino)-4,5-dihydro-2H-pyrimido[5′,4′:4,5]thieno[2,3-e]indazol-2-yl]-3-(isobutylamino)propan-2-ol trifluoroacetate (salt)]
pIC50 [1]: ≥ 4.30 | pIC50 [2]: ≥ 5.30

CNCCn1cc2c(n1)CCc1c-2sc2ncnc(Nc3ccc(OCc4ccccn4)c(Cl)c3)c12 [Example 107, N-[3-chloro-4-(pyridin-2-ylmethoxy)phenyl]-2-[2-(methylamino)ethyl]-4,5-dihydro-2H-pyrimido[5′,4′:4,5]thieno[2,3-e]indazol-6-amine]
pIC50 [1]: ≥ 5.30 | pIC50 [2]: ≥ 6.00

CS(=O)(=O)CCNCCn1cc2c(n1)CCc1c-2sc2ncnc(Nc3ccc(OCc4ccccn4)c(Cl)c3)c12 [Example 105, N-[3-chloro-4-(pyridin-2-ylmethoxy)phenyl]-2-(2-{[2-(methylsulfonyl)ethyl]amino}ethyl)-4,5-dihydro-2H-pyrimido[5′,4′:4,5]thieno[2,3-e]indazol-6-amine]
pIC50 [1]: ≥ 5.30 | pIC50 [2]: ≥ 6.00

COCCN1CCN(C[C@@H](O)Cn2cc3c(n2)CCc2c-3sc3ncnc(Nc4ccc(OCc5cccc(F)c5)c(Cl)c4)c23)CC1 [Example 133, (2R)-1-[6-({3-chloro-4-[(3-fluorobenzyl)oxy]phenyl}amino)-4,5-dihydro-2H-pyrimido[5′,4′:4,5]thieno[2,3-e]indazol-2-yl]-3-[4-(2-methoxyethyl)piperazin-1-yl]propan-2-ol]
pIC50 [1]: ≥ 4.30 | pIC50 [2]: ≥ 6.00

O[C@H](Cn1ccnc1)Cn1ncc2c1CCc1c-2sc2ncnc(Nc3ccc(OCc4cccc(F)c4)c(Cl)c3)c12 [Example 170, (2R)-1-[6-({3-chloro-4-[(3-fluorobenzyl)oxy]phenyl}amino)-4,5-dihydro-3H-pyrimido[5′,4′:4,5]thieno[2,3-e]indazol-3-yl]-3-(1H-imidazol-1-yl)propan-2-ol trifluoroacetate (salt)]
pIC50 [1]: ≥ 4.30 | pIC50 [2]: ≥ 6.00

Clc1cc(Nc2ncnc3sc4c(c23)CCc2c-4cnn2CCBr)ccc1OCc1ccccn1 [Example 110, 3-(2-bromoethyl)-N-[3-chloro-4-(pyridin-2-ylmethoxy)phenyl]-4,5-dihydro-3H-pyrimido[5′,4′:4,5]thieno[2,3-e]indazol-6-amine]
pIC50 [1]: ≥ 5.30 | pIC50 [2]: ≥ 6.00

CN1CCN(CCn2cc3c(n2)CCc2c-3sc3ncnc(Nc4ccc(N5CCOCC5)c(Cl)c4)c23)CC1 [Example 48, N-(3-chloro-4-morpholin-4-ylphenyl)-2-[2-(4-methylpiperazin-1-yl)ethyl]-4,5-dihydro-2H-pyrimido[5′,4′:4,5]thieno[2,3-e]indazol-6-amine]
pIC50 [1]: ≥ 4.30 | pIC50 [2]: ≥ 5.30

COCCN1CCN(CCn2ncc3c2CCc2c-3sc3ncnc(Nc4ccc(OCc5cccc(F)c5)c(Cl)c4)c23)CC1 [Example 265, N-{3-chloro-4-[(3-fluorobenzyl)oxy]phenyl}-3-{2-[4-(2-methoxyethyl)piperazin-1-yl]ethyl}-4,5-dihydro-3H-pyrimido[5′,4′:4,5]thieno[2,3-e]indazol-6-amine trifluoroacetate]
pIC50 [1]: ≥ 4.30 | pIC50 [2]: ≥ 6.00

O[C@H](CN1CCNCC1)Cn1cc2c(n1)CCc1c-2sc2ncnc(Nc3ccc(OCc4cccc(F)c4)c(Cl)c3)c12 [Example 152, (2R)-1-[6-({3-chloro-4-[(3-fluorobenzyl)oxy]phenyl}amino)-4,5-dihydro-2H-pyrimido[5′,4′:4,5]thieno[2,3-e]indazol-2-yl]-3-piperazin-1-ylpropan-2-ol trifluoroacetate (salt)]
pIC50 [1]: ≥ 4.30 | pIC50 [2]: ≥ 6.00

Fc1cccc(COc2ccc(Nc3ncnc4sc5c(c34)CCc3c-5cnn3CCN3CCCC3)cc2Cl)c1 [Example 87, N-{3-chloro-4-[(3-fluorobenzyl)oxy]phenyl}-3-(2-pyrrolidin-1-ylethyl)-4,5-dihydro-3H-pyrimido[5′,4′:4,5]thieno[2,3-e]indazol-6-amine]
pIC50 [1]: ≥ 5.30 | pIC50 [2]: ≥ 6.00

O=C(CN1CCOCC1)N1CCC(n2cc3c(n2)CCc2c-3sc3ncnc(Nc4ccc(OCc5cccc(F)c5)c(Cl)c4)c23)CC1 [Example 222, N-{3-chloro-4-[(3-fluorobenzyl)oxy]phenyl}-2-[1-(morpholin-4-ylacetyl)piperidin-4-yl]-4,5-dihydro-2H-pyrimido[5′,4′:4,5]thieno[2,3-e]indazol-6-amine]
pIC50 [1]: ≥ 5.30 | pIC50 [2]: ≥ 6.00

O[C@H](CN1CCCC1)Cn1cc2c(n1)CCc1c-2sc2ncnc(Nc3ccc(OCc4cccc(F)c4)c(Cl)c3)c12 [Example 149, (2R)-1-[6-({3-chloro-4-[(3-fluorobenzyl)oxy]phenyl}amino)-4,5-dihydro-2H-pyrimido[5′,4′:4,5]thieno[2,3-e]indazol-2-yl]-3-pyrrolidin-1-ylpropan-2-ol trifluoroacetate (salt)]
pIC50 [1]: ≥ 4.30 | pIC50 [2]: ≥ 6.00

CN1CCN(C(=O)Cn2cc3c(n2)CCc2c-3sc3ncnc(Nc4ccc5c(cnn5Cc5cccc(F)c5)c4)c23)CC1 [Example 182, N-[1-(3-fluorobenzyl)-1H-indazol-5-yl]-2-[2-(4-methylpiperazin-1-yl)-2-oxoethyl]-4,5-dihydro-2H-pyrimido[5′,4′:4,5]thieno[2,3-e]indazol-6-amine]
pIC50 [1]: ≥ 5.30 | pIC50 [2]: ≥ 6.00

CN1CCN(CCn2ncc3c2CCc2c-3sc3ncnc(Nc4ccc(F)c(Cl)c4)c23)CC1 [Example 90, N-(3-chloro-4-fluorophenyl)-3-[2-(4-methylpiperazin-1-yl)ethyl]-4,5-dihydro-3H-pyrimido[5′,4′:4,5]thieno[2,3-e]indazol-6-amine trifluoroacetate]
pIC50 [1]: ≥ 5.30 | pIC50 [2]: ≥ 5.30

O=C(CN(CCO)CCO)N1CCC(Cn2cc3c(n2)CCc2c-3sc3ncnc(Nc4ccc(OCc5cccc(F)c5)c(Cl)c4)c23)CC1 [Example 240, 2,2′-{[2-(4-{[6-({3-chloro-4-[(3-fluorobenzyl)oxy]phenyl}amino)-4,5-dihydro-2H-pyrimido[5′,4′:4,5]thieno[2,3-e]indazol-2-yl]methyl}piperidin-1-yl)-2-oxoethyl]imino}diethanol]
pIC50 [1]: ≥ 5.30 | pIC50 [2]: ≥ 6.00

O=C(Cn1cc2c(n1)CCc1c-2sc2ncnc(Nc3ccc(OCc4cccc(F)c4)c(Cl)c3)c12)NCCN1CCOCC1 [Example 189, 2-[6-({3-chloro-4-[(3-fluorobenzyl)oxy]phenyl}amino)-4,5-dihydro-2H-pyrimido[5′,4′:4,5]thieno[2,3-e]indazol-2-yl]-N-(2-morpholin-4-ylethyl)acetamide]
pIC50 [1]: ≥ 4.30 | pIC50 [2]: ≥ 6.00

O=C(Cn1cc2c(n1)CCc1c-2sc2ncnc(Nc3ccc(OCc4cccc(F)c4)c(Cl)c3)c12)N(CCO)CCO [Example 187, 2-[6-({3-chloro-4-[(3-fluorobenzyl)oxy]phenyl}amino)-4,5-dihydro-2H-pyrimido[5′,4′:4,5]thieno[2,3-e]indazol-2-yl]-N,N-bis(2-hydroxyethyl)acetamide]
pIC50 [1]: ≥ 4.30 | pIC50 [2]: ≥ 6.00

CC(C)c1nccn1CCn1cc2c(n1)CCc1c-2sc2ncnc(Nc3ccc(F)c(Cl)c3)c12 [Example 42, N-(3-chloro-4-fluorophenyl)-2-[2-(2-isopropyl-1H-imidazol-1-yl)ethyl]-4,5-dihydro-2H-pyrimido[5′,4′:4,5]thieno[2,3-e]indazol-6-amine]
pIC50 [1]: ≥ 5.30 | pIC50 [2]: ≥ 5.30

Fc1cccc(COc2ccc(Nc3ncnc4sc5c(c34)CCc3nn(CCN4CCC(N6CCCCC6)CC4)cc3-5)cc2Cl)c1 [Example 70, 2-[2-(1,4′-bipiperidin-1′-yl)ethyl]-N-{3-chloro-4-[(3-fluorobenzyl)oxy]phenyl}-4,5-dihydro-2H-pyrimido[5′,4′:4,5]thieno[2,3-e]indazol-6-amine]
pIC50 [1]: ≥ 5.30 | pIC50 [2]: ≥ 6.00

CN(C)C1CCN(CCn2cc3c(n2)CCc2c-3sc3ncnc(Nc4ccc(OCc5cccc(F)c5)c(Cl)c4)c23)C1 (stereo not drawn) [Example 66, N-{3-chloro-4-[(3-fluorobenzyl)oxy]phenyl}-2-{2-[3-(dimethylamino)pyrrolidin-1-yl]ethyl}-4,5-dihydro-2H-pyrimido[5′,4′:4,5]thieno[2,3-e]indazol-6-amine]
pIC50 [1]: ≥ 5.30 | pIC50 [2]: ≥ 6.00

CN1CCN(CCn2cc3c(n2)CCc2c-3sc3ncnc(Nc4ccc(OCc5ccc(Cl)cc5)c(Cl)c4)c23)CC1 [Example 331, N-{3-chloro-4-[(4-chlorobenzyl)oxy]phenyl}-2-[2-(4-methylpiperazin-1-yl)ethyl]-4,5-dihydro-2H-pyrimido[5′,4′:4,5]thieno[2,3-e]indazol-6-amine]
pIC50 [1]: ≥ 5.30 | pIC50 [2]: ≥ 6.00
